The nature of one data set: Solubility in PBS. It is filed as physicochemical. The method, boiled down:
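Read-out is the HPLC peak area of the supernatant from ultracentrifuged PBS solution, scaled against a 50 μM peptide DMSO injection; value reported as [(PBS area)/(DMSO area)]*50 uM.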

Data set [1] has as its target T1, full-length beta-Catenin (Uniprot ID P35222) (Homo sapiens, UniProt P35222).
T1 construct: 10 nM full-length beta-Catenin (Uniprot ID P35222)
T1 sequence (P35222 1-781): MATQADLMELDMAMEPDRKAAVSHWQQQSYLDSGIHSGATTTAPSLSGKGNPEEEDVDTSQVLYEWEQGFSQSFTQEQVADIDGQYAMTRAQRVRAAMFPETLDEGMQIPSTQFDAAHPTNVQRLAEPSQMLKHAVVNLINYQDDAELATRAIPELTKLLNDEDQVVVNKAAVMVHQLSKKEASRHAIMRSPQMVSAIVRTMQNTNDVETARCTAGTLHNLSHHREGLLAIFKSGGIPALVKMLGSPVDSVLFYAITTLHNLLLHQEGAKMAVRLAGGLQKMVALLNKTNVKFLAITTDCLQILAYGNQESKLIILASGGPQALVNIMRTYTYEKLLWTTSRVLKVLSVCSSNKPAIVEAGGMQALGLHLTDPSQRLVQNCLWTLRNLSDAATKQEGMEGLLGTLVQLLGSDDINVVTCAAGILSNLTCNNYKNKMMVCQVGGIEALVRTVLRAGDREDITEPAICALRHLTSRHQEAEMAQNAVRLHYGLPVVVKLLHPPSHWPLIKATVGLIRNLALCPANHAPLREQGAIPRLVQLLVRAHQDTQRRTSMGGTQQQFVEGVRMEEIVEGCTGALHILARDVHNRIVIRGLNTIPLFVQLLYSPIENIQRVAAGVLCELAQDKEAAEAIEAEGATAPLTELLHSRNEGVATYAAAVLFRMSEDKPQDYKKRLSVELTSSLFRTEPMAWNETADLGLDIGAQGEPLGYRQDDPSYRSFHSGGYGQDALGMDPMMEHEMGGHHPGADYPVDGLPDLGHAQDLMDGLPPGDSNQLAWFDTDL
Briefly: Fluorescence polarization IC50 (beta-catenin / 5FAM-TCF4 10-53 competition). The following applies: fluorescence polarization; read-out: beta-Catenin FP IC50. Format: binding. (In general: In fluorescence polarisation assays a small probe gives low polarisation when free and higher when bound to something large.)

The target of data set [2] is T2, beta-catenin/TCF4 engagement (Homo sapiens, UniProt P35222).
T2 construct: expressed in transfected cells; host or cells: HEK293
T2 sequence (P35222 1-781): T1 sequence (P35222 1-781)
Briefly: Nano-BRET target engagement assay (B-cat-Halo & TCF4-Luc in HEK293 cells). It is filed as cell-based. To be noted: absolute IC50; read-out: NanoBRET Abs IC50. For orientation: In BRET a luciferase serves as donor, and the signal depends on an acceptor being close.

Converted amounts (≈) assume the structure as drawn. Like-named read-outs stand apart in the source and are kept apart here.

What is called Solubility is the concentration that dissolves in the medium under given conditions. A low value points to a poorly soluble substance. In general, IC50 refers to the point on the concentration scale where inhibition reaches its midpoint. In turn, `CC(=O)N1CCC[C@]12CC=CCCCC1(CCCC=CCCCOC(=O)N3CC[C@@](C(=O)N[C@@H](Cc4ccccc4Cl)C(=O)N[C@@H](Cc4csc5ccccc45)C(=O)N[C@H](C(N)=O)[C@@H](C)O)(C3)NC(=O)[C@H](CCCCNC(C)C)NC(=O)[C@H](Cc3ccccc3)NC(=O)[C@H](C)NC(=O)[C@H](C)NC(=O)[C@H](CC(=O)O)NC(=O)[C@H](CC(=O)O)NC1=O)NC(=O)[C@H](CC(C)(C)C)NC(=O)[C@H](CC(=O)O)NC2=O` (stereo partly drawn) [I-1279, Ac-PL3-Asp-Npg-B5-Asp-Asp-Ala-Ala-Phe-iPrLys-PyrS2-2C1F-BztA-Thr-NH2] yielded a Solubility in the data set “Solubility in PBS” (Solubility (uM)) of 14 µM (≈ 27.7 µg/mL). The figures for the IC50 in data set [1] and in data set [2] were 12 nM and 22900 nM, respectively.
Consider `CC(=O)N1CCC[C@]12CC=CCCCC1(CCCC=CCCCOC(=O)N3CC[C@@](C(=O)N[C@@H](Cc4ccccc4Cl)C(=O)N[C@@H](Cc4csc5ccccc45)C(=O)N[C@@H](CC(C)C)C(N)=O)(C3)NC(=O)[C@H](CCCCNC(C)C)NC(=O)[C@H](Cc3ccccc3)NC(=O)[C@H](C)NC(=O)[C@H](C)NC(=O)[C@H](CC(=O)O)NC(=O)[C@H](CC(=O)O)NC1=O)NC(=O)[C@H](CC(C)(C)C)NC(=O)[C@H](CC(=O)O)NC2=O` (stereo partly drawn) [I-1280, Ac-PL3-Asp-Npg-B5-Asp-Asp-Ala-Ala-Phe-iPrLys-PyrS2-2C1F-BztA-Leu-NH2], for which, in “Solubility in PBS”, the “Solubility” value was 10 µM (≈ 19.9 µg/mL). Further, the IC50 in data set [1] came out at 22 nM; in data set [2], 24700 nM.
In “Solubility in PBS” (Solubility (uM)), `CC(=O)N1CCC[C@]12CC=CCCCC1(CCCC=CCCCOC(=O)N3CC[C@@](C(=O)N[C@@H](Cc4ccccc4Cl)C(=O)N[C@@H](Cc4csc5ccccc45)C(=O)N[C@@H](CCC(N)=O)C(N)=O)(C3)NC(=O)[C@H](CCCCNC(C)C)NC(=O)[C@H](Cc3ccccc3)NC(=O)[C@H](C)NC(=O)[C@H](C)NC(=O)[C@H](CCC(=O)O)NC(=O)[C@H](CC(=O)O)NC1=O)NC(=O)[C@H](CC(C)(C)C)NC(=O)[C@H](CC(=O)O)NC2=O` (stereo partly drawn) [I-1281, Ac-PL3-Asp-Npg-B5-Asp-Glu-Ala-Ala-Phe-iPrLys-PyrS2-2C1F-BztA-Gln-NH2] showed a Solubility of 14 µM (≈ 28.2 µg/mL). Further, the IC50 in data set [1] came out at 10 nM; in data set [2], 22200 nM.
The corresponding values for `CC(=O)N1CCC[C@]12CC=CCCCC1(CCCC=CCCCOC(=O)N3CC[C@@](C(=O)N[C@@H](Cc4ccccc4Cl)C(=O)N[C@@H](Cc4csc5ccccc45)C(=O)N[C@H](C(N)=O)[C@@H](C)O)(C3)NC(=O)[C@H](CCCCNC(C)C)NC(=O)[C@H](Cc3ccccc3)NC(=O)[C@H](C)NC(=O)[C@H](C)NC(=O)[C@H](CCC(=O)O)NC(=O)[C@H](CC(=O)O)NC1=O)NC(=O)[C@H](CC(C)(C)C)NC(=O)[C@H](CC(=O)O)NC2=O` (stereo partly drawn) [I-1282, Ac-PL3-Asp-Npg-B5-Asp-Glu-Ala-Ala-Phe-iPrLys-PyrS2-2C1F-BztA-Thr-NH2] are 24 µM (≈ 47.8 µg/mL), 34 nM and 43100 nM.
With `CC(=O)N1CCC[C@]12CC=CCCCC1(CCCC=CCCCOC(=O)N3CC[C@@](C(=O)N[C@@H](Cc4ccccc4Cl)C(=O)N[C@@H](Cc4csc5ccccc45)C(=O)N[C@@H](CC(C)C)C(N)=O)(C3)NC(=O)[C@H](CCCCNC(C)C)NC(=O)[C@H](Cc3ccccc3)NC(=O)[C@H](C)NC(=O)[C@H](C)NC(=O)[C@H](CCC(=O)O)NC(=O)[C@H](CC(=O)O)NC1=O)NC(=O)[C@H](CC(C)(C)C)NC(=O)[C@H](CC(=O)O)NC2=O` (stereo partly drawn) [I-1283, Ac-PL3-Asp-Npg-B5-Asp-Glu-Ala-Ala-Phe-iPrLys-PyrS2-2C1F-BztA-Leu-NH2], the “Solubility” value in the data set “Solubility in PBS” was 10 µM (≈ 20 µg/mL). The IC50 was 26 nM in data set [1] and 38600 nM in data set [2].
As for `CC(=O)N1CCC[C@]12CC=CCCCC1(CCCC=CCCCOC(=O)N3CC[C@@](C(=O)N[C@@H](Cc4ccsc4)C(=O)N[C@@H](Cc4csc5ccccc45)C(=O)N[C@H](CO)[C@@H](C)O)(C3)NC(=O)[C@H](Cc3ccccc3)NC(=O)[C@H](Cc3ccccc3)NC(=O)[C@H](C)NC(=O)[C@H](C)NC(=O)[C@H](CC(=O)O)NC(=O)[C@H](CC(=O)O)NC1=O)NC(=O)[C@H](CC(C)(C)C)NC(=O)[C@H](CC(=O)O)NC2=O` (stereo partly drawn) [I-1303, Ac-PL3-Asp-Npg-B5-Asp-Asp-Ala-Ala-Phe-Phe-PyrS2-3Thi-BztA-Thro1], the Solubility in “Solubility in PBS” (Solubility (uM)) was determined as 28 µM (≈ 53.5 µg/mL). Also, the IC50 in data set [1] stood at 86 nM; in data set [2], 9100 nM.
As for `CC(=O)N1CCC[C@]12CC=CCCCC1(CCCC=CCCCOC(=O)N3CC[C@@](C(=O)N[C@@H](Cc4ccsc4)C(=O)N[C@@H](Cc4csc5ccccc45)C(=O)N[C@H](CO)[C@@H](C)O)(C3)NC(=O)[C@H](CC(C)C)NC(=O)[C@H](Cc3ccccc3)NC(=O)[C@H](C)NC(=O)[C@H](C)NC(=O)[C@H](CC(=O)O)NC(=O)[C@H](CC(=O)O)NC1=O)NC(=O)[C@H](CC(C)(C)C)NC(=O)[C@H](CC(N)=O)NC2=O` (stereo partly drawn) [I-1304, Ac-PL3-Asn-Npg-B5-Asp-Asp-Ala-Ala-Phe-Leu-PyrS2-3Thi-BztA-Thro1], the “Solubility” value in “Solubility in PBS” was 10 µM (≈ 18.8 µg/mL). In addition, the IC50 was determined as 31 nM in data set [1] and 33600 nM in data set [2].
In the data set “Solubility in PBS” (Solubility (uM)), `CC(=O)N1CCC[C@]12CC=CCCCC1(CCCC=CCCCOC(=O)N3CC[C@@](C(=O)N[C@@H](Cc4ccsc4)C(=O)N[C@@H](Cc4csc5ccccc45)C(=O)N[C@H](CO)[C@@H](C)O)(C3)NC(=O)[C@H](CCO)NC(=O)[C@H](Cc3ccccc3)NC(=O)[C@H](C)NC(=O)[C@H](C)NC(=O)[C@H](CC(=O)O)NC(=O)[C@H](CC(=O)O)NC1=O)NC(=O)[C@H](CC(C)(C)C)NC(=O)[C@H](CC(=O)O)NC2=O` (stereo partly drawn) [I-1305, Ac-PL3-Asp-Npg-B5-Asp-Asp-Ala-Ala-Phe-Hse-PyrS2-3Thi-BztA-Thro1] displayed a Solubility of 49 µM (≈ 91.4 µg/mL). The IC50 in data set [1] was 6 nM; in data set [2], 9700 nM.
The corresponding values for `CC(=O)N1CCC[C@]12CC=CCCCC1(CCCC=CCCCCCC[C@@](C)(C(=O)N[C@@H](Cc3ccccc3Cl)C(=O)N[C@@H](Cc3csc4ccccc34)C(=O)N[C@H](CO)[C@@H](C)O)NC(=O)[C@H]([C@@H](C)O)NC(=O)[C@H](Cc3ccccc3)NC(=O)[C@H](C)NC(=O)[C@H](C)NC(=O)[C@H](CC(=O)O)NC(=O)[C@H](CC(=O)O)NC1=O)NC(=O)[C@H](CC(C)(C)C)NC(=O)[C@H](CC(=O)O)NC2=O` (stereo partly drawn) [I-1308, Ac-PL3-Asp-Npg-B5-Asp-Asp-Ala-Ala-Phe-Thr-S8-2C1F-BztA-Thro1] are 47 µM (≈ 87 µg/mL), 25 nM and 11900 nM.
For `CC(=O)N1CCC[C@]12CC=CCCCC1(CCCC=CCCCOC(=O)N3CC[C@@](C(=O)N[C@@H](Cc4ccccc4Cl)C(=O)N[C@@H](Cc4csc5ccccc45)C(=O)N[C@H](CO)[C@@H](C)O)(C3)NC(=O)[C@H]([C@@H](C)O)NC(=O)[C@H](Cc3ccccc3)NC(=O)[C@H](C)NC(=O)[C@H](C)NC(=O)[C@H]([C@@H](C)O)NC(=O)[C@H](CC(=O)O)NC1=O)NC(=O)[C@H](CC(C)(C)C)NC(=O)[C@H](CC(=O)O)NC2=O` (stereo partly drawn) [I-1309, Ac-PL3-Asp-Npg-B5-Asp-Thr-Ala-Ala-Phe-Thr-PyrS2-2C1F-BztA-Thro1], the “Solubility” value in “Solubility in PBS” came out at 10 µM (≈ 18.8 µg/mL). Further, the IC50 in data set [1] came out at 59 nM; in data set [2], 28600 nM.
As for `CC(=O)N1CCC[C@]12CC=CCCCC1(CCCC=CCCCOC(=O)N3CC[C@@](C(=O)N[C@@H](Cc4ccccc4Cl)C(=O)N[C@@H](Cc4csc5ccccc45)C(=O)N[C@H](CO)[C@@H](C)O)(C3)NC(=O)[C@H]([C@@H](C)O)NC(=O)[C@H](Cc3ccccc3)NC(=O)[C@H](C)NC(=O)[C@H](C)NC(=O)[C@H]([C@@H](C)O)NC(=O)[C@H](CC(=O)O)NC1=O)NC(=O)[C@H](CC1CCCCC1)NC(=O)[C@H](CC(=O)O)NC2=O` (stereo partly drawn) [I-1310, Ac-PL3-Asp-Cha-B5-Asp-Thr-Ala-Ala-Phe-Thr-PyrS2-2ClF-BztA-Thro1], the “Solubility” value in “Solubility in PBS” is 10 µM (≈ 19.1 µg/mL). Further, the results for the IC50 in data set [1] and in data set [2] were 124 nM and over 20000 nM, respectively.
The corresponding values for `CC(=O)N1CCC[C@]12CC=CCCCC1(CCCC=CCCCOC(=O)N3CC[C@@](C(=O)N[C@@H](Cc4ccccc4Cl)C(=O)N[C@@H](Cc4csc5ccccc45)C(=O)N[C@H](CO)[C@@H](C)O)(C3)NC(=O)[C@H](Cc3ccccc3)NC(=O)[C@H](Cc3ccccc3)NC(=O)[C@H](C)NC(=O)[C@H](C)NC(=O)[C@H](CC(=O)O)NC(=O)[C@H](CC(=O)O)NC1=O)NC(=O)[C@H](CC(C)(C)C)NC(=O)[C@H](CC(=O)O)NC2=O` (stereo partly drawn) [I-1311, Ac-PL3-Asp-Npg-B5-Asp-Asp-Ala-Ala-Phe-Phe-PyrS2-2C1F-BztA-Thro1] are 10 µM (≈ 19.4 µg/mL), 38 nM and 20600 nM.

Source of the values: US20240116985A1, “STAPLED PEPTIDES AND METHODS THEREOF” (priority 2020, published 2024).
